# Experiments:
# Assay type in all cases: cell-based
# [1] = tested on: Molt-4 cells; test: CellTiter-Glo cell viability, Molt-4; conditions: Homo sapiens, 72 h
# Method: (§1) The cell viability of 50 cancer cell lines was studied after treatment with Compound 121. Inhibition concentration values at 50% (IC50) were determined using CellTiter-Glo luminescent cell viability assay after incubation with different compound concentrations. GI50 values were determined according to the examples described above. Each cell line was treated with Compound 121, a standard chemotherapy drug as a reference control, and culture medium as a vehicle control.
# (§2) All cells were cultured in media supplemented with 10-15% FBS at 37° C. in the presence of 5% CO2 and at 95% humidity. The culture medium was purchased from GIBCO or Sigma, USA. Cisplatin was chosen as the reference control and purchased from Hospira Australia Pty Ltd. The cell lines studied are presented in Table 5.
# (§3) Cells were harvested during a logarithmic growth period and cell number count was determined using Count-star. Cell concentrations were adjusted to 4.44×10^4 cells/mL with respective culture medium. 90 μL of cell suspensions were added to two 96-well plates (plates A and B) with a final cell density of 4×10^3 cells/well.
# (§4) 10 μL of culture medium was added to each well of plate A for TO reading. The plate was allowed to equilibrate at room temperature for approximately 30 min. 50 μL of CellTiter-Glo was added to each well and the contents were mixed for 5 min on an orbital shaker to induce cell lysis. The plate was allowed to incubate at room temperature for 20 min to stabilize luminescent signal.
# (§5) 10 μM Compound 121 in media was serially diluted 3.16-fold to achieve 9 dose levels. Similarly, 100 μM reference control in media was serially diluted 3.16-fold to prepare reference control solutions. 10 μL drug solution and 10 μL of reference control was dispensed into each well in plate B.
# (§6) Test plate B was incubated for 72 h in a humidified incubator at 37° C. in the presence of 5% CO2 and then subjected to CTG assay. The plate was allowed to equilibrate at room temperature for about 30 min. 50 μL of CellTiter-Glo was added to each well and the contents were mixed for 5 min on an orbital shaker to induce cell lysis. The plate was allowed to incubate at room temperature for 20 min to stabilize luminescent signal.
# (§7) IC50 and GI50 values for each of the 50 cell lines are presented in Table 6 and were calculated based on the dose-response curves depicted in FIGS. 1-50. The dose-response curves were fitted using nonlinear regression model with a sigmoidal dose response. The formula for calculating survival rate was calculated by the formula:
# (§8) Survival rate (%)=(LumTest article−LumMedium control)/(LumNone treated−LumMedium control)×100.
# [2] = tested on: EBC-1 cells; test: CellTiter-Glo cell viability, EBC-1; conditions: Homo sapiens, 72 h
# Method: as §1, §2, §3, §4, §5, §6, §7, §8
# [3] = tested on: KP4 cells; test: CellTiter-Glo cell viability, KP4; conditions: Homo sapiens, KP-4, 72 h
# Method: as §1, §2, §3, §4, §5, §6, §7, §8
# [4] = tested on: NCI-H209 cells; test: CellTiter-Glo cell viability, NCI-H209; conditions: Homo sapiens, 72 h
# Method: as §1, §2, §3, §4, §5, §6, §7, §8
# [5] = tested on: NCI-H1975 cells; test: CellTiter-Glo cell viability, NCI-H1975; conditions: Homo sapiens, 72 h
# Method: as §1, §2, §3, §4, §5, §6, §7, §8
# [6] = tested on: HT-1080 cells; test: CellTiter-Glo cell viability, HT-1080; conditions: Homo sapiens, 72 h
# Method: as §1, §2, §3, §4, §5, §6, §7, §8
# [7] = tested on: HUH-7 cells; test: CellTiter-Glo cell viability, HUH-7; conditions: Homo sapiens, 72 h
# Method: as §1, §2, §3, §4, §5, §6, §7, §8
# [8] = tested on: Raji cells; test: CellTiter-Glo cell viability, Raji; conditions: Homo sapiens, 72 h
# Method: as §1, §2, §3, §4, §5, §6, §7, §8
# [9] = tested on: HuT 78 cells; test: CellTiter-Glo cell viability, HuT 78; conditions: Homo sapiens, HuT78, 72 h
# Method: as §1, §2, §3, §4, §5, §6, §7, §8
# [10] = tested on: HCT-116 cells; test: CellTiter-Glo cell viability, HCT-116; conditions: Homo sapiens, 72 h
# Method: as §1, §2, §3, §4, §5, §6, §7, §8
# [11] = tested on: SCC-4 cells; test: CellTiter-Glo cell viability, SCC-4; conditions: Homo sapiens, 72 h
# Method: as §1, §2, §3, §4, §5, §6, §7, §8
# [12] = tested on: 786-O cells; test: CellTiter-Glo cell viability, 786-O; conditions: Homo sapiens, 786-0, 72 h
# Method: as §1, §2, §3, §4, §5, §6, §7, §8
# [13] = tested on: NCI-H226 cells; test: CellTiter-Glo cell viability, NCI-H226; conditions: Homo sapiens, 72 h
# Method: as §1, §2, §3, §4, §5, §6, §7, §8
# [14] = tested on: HCT-15 cells; test: CellTiter-Glo cell viability, HCT-15; conditions: Homo sapiens, 72 h
# Method: as §1, §2, §3, §4, §5, §6, §7, §8
# [15] = tested on: AsPC-1 cells; test: CellTiter-Glo cell viability, AsPC-1; conditions: Homo sapiens, ASPC1, 72 h
# Method: as §1, §2, §3, §4, §5, §6, §7, §8
# [16] = tested on: HT-29 cells; test: CellTiter-Glo cell viability, HT-29; conditions: Homo sapiens, 72 h
# Method: as §1, §2, §3, §4, §5, §6, §7, §8
# [17] = tested on: PC-3 cells; test: CellTiter-Glo cell viability, PC-3; conditions: Homo sapiens, 72 h
# Method: as §1, §2, §3, §4, §5, §6, §7, §8
# [18] = tested on: FaDu cells; test: CellTiter-Glo cell viability, FaDu; conditions: Homo sapiens, 72 h
# Method: as §1, §2, §3, §4, §5, §6, §7, §8
# [19] = tested on: SNU-5 cells; test: CellTiter-Glo cell viability, SNU-5; conditions: Homo sapiens, SNU-5, SN1J-5 cells, 72 h
# Method: as §1, §2, §3, §4, §5, §6, §7, §8
# [20] = tested on: MX-1 cells; test: CellTiter-Glo cell viability, MX-1; conditions: Homo sapiens, MX1, 72 h
# Method: as §1, §2, §3, §4, §5, §6, §7, §8
# [21] = tested on: HT-1376 cells; test: CellTiter-Glo cell viability, HT-1376; conditions: Homo sapiens, 72 h
# Method: as §1, §2, §3, §4, §5, §6, §7, §8
# [22] = top conc. 10 μM Compound 121, 100 μM cisplatin
smiles,measurement,setting,value
Cc1cc(N2CCOC[C@@H]2C)ccc1-c1ccc(CC(=O)NCc2ccc(F)cc2)nc1 [Compound 121],GI50,[1]; read-out: Absolute GI50,13 nM
same,IC50,[1]; read-out: Absolute IC50,14 nM
same,inhibition at 10 µM,[1]; [22],99.6%
same,GI50,[2]; read-out: Absolute GI50,4 nM
same,IC50,[2]; read-out: Absolute IC50,4 nM
same,inhibition at 10 µM,[2]; [22],56.8%
same,GI50,[3]; read-out: Absolute GI50,7 nM
same,IC50,[3]; read-out: Absolute IC50,8 nM
same,inhibition at 10 µM,[3]; [22],90.8%
same,GI50,[4]; read-out: Absolute GI50,17 nM
same,IC50,[4]; read-out: Absolute IC50,20 nM
same,inhibition at 10 µM,[4]; [22],73.7%
same,GI50,[5]; read-out: Absolute GI50,6 nM
same,IC50,[5]; read-out: Absolute IC50,6 nM
same,inhibition at 10 µM,[5]; [22],83.7%
same,GI50,[6]; read-out: Absolute GI50,5 nM
same,IC50,[6]; read-out: Absolute IC50,5 nM
same,inhibition at 10 µM,[6]; [22],97.2%
same,GI50,[7]; read-out: Absolute GI50,7 nM
same,IC50,[7]; read-out: Absolute IC50,9 nM
same,inhibition at 10 µM,[7]; [22],60.8%
same,GI50,[8]; read-out: Absolute GI50,5 nM
same,IC50,[8]; read-out: Absolute IC50,5 nM
same,inhibition at 10 µM,[8]; [22],94.2%
same,GI50,[9]; read-out: Absolute GI50,8 nM
same,IC50,[9]; read-out: Absolute IC50,9 nM
same,inhibition at 10 µM,[9]; [22],95.2%
same,GI50,[10]; read-out: Absolute GI50,9 nM
same,IC50,[10]; read-out: Absolute IC50,9 nM
same,inhibition at 10 µM,[10]; [22],94.4%
same,GI50,[11]; read-out: Absolute GI50,5 nM
same,IC50,[11]; read-out: Absolute IC50,6 nM
same,inhibition at 10 µM,[11]; [22],86.1%
same,GI50,[12]; read-out: Absolute GI50,5 nM
same,IC50,[12]; read-out: Absolute IC50,5 nM
same,inhibition at 10 µM,[12]; [22],85.3%
same,GI50,[13]; read-out: Absolute GI50,10 nM
same,IC50,[13]; read-out: Absolute IC50,13 nM
same,inhibition at 10 µM,[13]; [22],61.7%
same,GI50,[14]; read-out: Absolute GI50,5 nM
same,IC50,[14]; read-out: Absolute IC50,6 nM
same,inhibition at 10 µM,[14]; [22],96.8%
same,GI50,[15]; read-out: Absolute GI50,12 nM
same,IC50,[15]; read-out: Absolute IC50,> 10000 nM
same,inhibition at 10 µM,[15]; [22],51.2%
same,GI50,[16]; read-out: Absolute GI50,4 nM
same,IC50,[16]; read-out: Absolute IC50,4 nM
same,inhibition at 10 µM,[16]; [22],78.5%
same,GI50,[17]; read-out: Absolute GI50,8 nM
same,IC50,[17]; read-out: Absolute IC50,8 nM
same,inhibition at 10 µM,[17]; [22],93.3%
same,GI50,[18]; read-out: Absolute GI50,7 nM
same,IC50,[18]; read-out: Absolute IC50,8 nM
same,inhibition at 10 µM,[18]; [22],85.9%
same,GI50,[19]; read-out: Absolute GI50,11 nM
same,IC50,[19]; read-out: Absolute IC50,12 nM
same,inhibition at 10 µM,[19]; [22],96.2%
same,GI50,[20]; read-out: Absolute GI50,11 nM
same,IC50,[20]; read-out: Absolute IC50,18 nM
same,inhibition at 10 µM,[20]; [22],66.8%
same,GI50,[21]; read-out: Absolute GI50,6 nM
same,IC50,[21]; read-out: Absolute IC50,9 nM
same,inhibition at 10 µM,[21]; [22],53%

# Reference: patent publication US20210196724A1, “BIARYL COMPOSITIONS AND METHODS FOR MODULATING A KINASE CASCADE” (Athenex, Inc., priority 2016, published 2021)
